Laboratory results taken from ChEMBL document CHEMBL5625262, “Discovery and first-time disclosure of CVN766, an exquisitely selective orexin 1 receptor antagonist” (Bioorg Med Chem Lett, 2024).

Assays:
[1] = target: T1, Orexin/Hypocretin receptor type 1 (Homo sapiens, UniProt O43613); assay: Displacement of 3H-SB-674042 from human Ox1R expressed in CHO cell membranes by liquid scintillation counting method; design: species or system Membrane
T1 sequence (O43613 whole entry): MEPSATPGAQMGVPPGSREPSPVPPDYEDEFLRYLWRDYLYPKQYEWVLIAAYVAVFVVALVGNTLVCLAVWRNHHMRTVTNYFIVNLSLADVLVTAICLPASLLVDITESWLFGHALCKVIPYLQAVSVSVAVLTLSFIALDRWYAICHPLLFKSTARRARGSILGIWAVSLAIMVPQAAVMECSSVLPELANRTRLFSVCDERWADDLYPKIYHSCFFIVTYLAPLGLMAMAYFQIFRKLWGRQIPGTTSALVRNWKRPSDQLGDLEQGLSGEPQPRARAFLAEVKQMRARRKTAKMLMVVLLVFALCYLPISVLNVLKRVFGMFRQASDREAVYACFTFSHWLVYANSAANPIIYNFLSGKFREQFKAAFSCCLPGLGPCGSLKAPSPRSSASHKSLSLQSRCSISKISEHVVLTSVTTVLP

[2] = target: T2, Orexin receptor type 2 (Homo sapiens) (UniProt O43614); assay: Antagonist activity at human Ox2R overexpressed in rat Chem-1 cells assessed as inhibition of orexin A induced calcium flux at 10 uM preincubated for 15 mins followed by orexin A addition by FLIPR analysis relative to control; format: functional, cell-based
T2 sequence (whole entry): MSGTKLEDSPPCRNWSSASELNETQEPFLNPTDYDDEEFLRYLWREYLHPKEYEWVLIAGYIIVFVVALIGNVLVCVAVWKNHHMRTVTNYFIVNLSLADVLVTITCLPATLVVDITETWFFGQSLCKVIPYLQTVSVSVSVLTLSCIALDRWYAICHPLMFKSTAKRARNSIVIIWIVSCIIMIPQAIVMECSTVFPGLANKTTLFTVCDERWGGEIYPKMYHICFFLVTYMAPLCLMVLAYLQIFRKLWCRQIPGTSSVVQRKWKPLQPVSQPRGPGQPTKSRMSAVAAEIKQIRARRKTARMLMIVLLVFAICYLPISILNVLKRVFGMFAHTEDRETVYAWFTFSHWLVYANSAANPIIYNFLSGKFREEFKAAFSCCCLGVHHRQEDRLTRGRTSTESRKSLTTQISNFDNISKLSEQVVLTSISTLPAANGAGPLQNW

[3] = target: T1, Orexin/Hypocretin receptor type 1; assay: Antagonist activity at human Ox1R overexpressed in rat Chem-1 cells assessed as inhibition of orexin A induced calcium flux preincubated for 15 mins followed by orexin A addition by FLIPR analysis; format: functional, cell-based
Orexin receptor type 2 [4] = target: T3, Orexin receptor type 2 (Homo sapiens, UniProt O43614); assay: Antagonist activity at human Ox2R overexpressed in rat Chem-1 cells assessed as inhibition of orexin A induced calcium flux preincubated for 15 mins followed by orexin A addition by FLIPR analysis; format: functional, cell-based
T3 sequence (O43614 whole entry): T2 sequence (whole entry)

[5] = Metabolic stability in mouse liver microsomes assessed as intrinsic clearance; format: ADME, Microsome; conditions: read-out: CLH
[6] = Metabolic stability in rat liver microsomes assessed as intrinsic clearance; format: ADME, Microsome; conditions: read-out: CLH
[7] = Metabolic stability in human liver microsomes assessed as intrinsic clearance; format: ADME, Microsome; conditions: read-out: CLH
[8] = Ratio of drug concentration in brain to plasma of po and iv dosed Sprague-Dawley rat; format: ADME, organism-based
[9] = Volume of distribution in po or iv dosed Sprague-Dawley rat; format: ADME, organism-based; conditions: in vivo
[10] = Clearance in dog; format: ADME, Canis lupus familiaris; conditions: in vivo
[11] = Ratio of unbound drug concentration in brain to plasma of po and iv dosed Sprague-Dawley rat; format: ADME, organism-based
[12] = In vivo receptor occupancy at Ox1R in Sprague-Dawley rat at 3 mg/kg, po in presence of [3H]-SB-674042 measured for 8 hrs; format: ADME, organism-based
Orexin receptor type 2 [13] = target: T3, Orexin receptor type 2; assay: Binding affinity to Ox2R (unknown origin)
[14] = Tmax in Sprague-Dawley rat at 3 mg/kg, po measured for 8 hrs; format: ADME, organism-based; conditions: in vivo
[15] = Selectivity ratio of pKi for displacement of 3H-SB-674042 from human Ox1R expressed in CHO cell membranes to pKi for Ox2R (unknown origin)
[16] = Oral bioavailability in Sprague-Dawley rat; format: ADME, organism-based; conditions: in vivo
[17] = Oral bioavailability in dog; format: ADME, organism-based, Canis lupus familiaris; conditions: in vivo
[18] = target: T4, Orexin/Hypocretin receptor type 1 (Homo sapiens) (UniProt O43613); conditions: CHO, Membrane, filed as antagonist
T4 sequence (whole entry): T1 sequence (O43613 whole entry)

Molecule `Cc1nc(C(F)(F)F)cnc1N[C@H]1CCC[C@@H]1NC(=O)c1ccccc1-n1nccn1` has a Ki [1] of 20.9 nM, an inhibition [2] of 22% and an IC50 [3] of 21 nM.
In the case of `Cc1nc(C(F)(F)F)cnc1N[C@H]1CCC[C@@H]1NC(=O)c1ncccc1-n1nccn1`, the inhibition [2] is reported as 11.4% and the IC50 [3] is reported as 32 nM.
For `Cc1ccc(-n2nccn2)c(C(=O)N[C@H]2CCC[C@@H]2Nc2nc3ccc(F)cc3s2)c1`, the IC50 [3] was 17 nM and the IC50 (Orexin receptor type 2 [4]) was 2460 nM.
In the case of `O=C(N[C@H]1CCC[C@@H]1Nc1cnc(C(F)(F)F)cn1)c1ccccc1-n1nccn1`, the Ki [1] is reported as 81.3 nM and the inhibition [2] is reported as 12%.
`CC(C)c1cnc(N[C@H]2CCC[C@@H]2NC(=O)c2ccccc2-n2nccn2)cn1` showed a microsomal CLint [5] of 403 µL/min/mg, an inhibition [2] of 12% and a microsomal CLint [6] of 119 µL/min/mg. The microsomal CLint [7] was 23 µL/min/mg.
Molecule `C[C@]1(Nc2cnc(C(F)(F)F)cn2)CCC[C@@H]1NC(=O)c1ccccc1-n1nccn1` has an inhibition [2] of 25.3% and an IC50 [3] of 6 nM.
`CCc1nc(C(F)(F)F)cnc1N[C@H]1CCC[C@@H]1NC(=O)c1ccccc1-n1nccn1` gave an inhibition [2] of 25.6%.
With `CCc1nc(C(F)(F)F)cnc1N[C@H]1CCC[C@@H]1NC(=O)c1ncccc1-n1nccn1` [CVN-766] the microsomal CLint [5] was less than 3 µL/min/mg, the Ki [1] was 7.24 nM and the BPR [8] was 0.6. It also gave a Vd [9] of 1.02 L/kg, an inhibition [2] of 37.5% and a microsomal CLint [6] of 13 µL/min/mg. For the same molecule, the microsomal CLint [7] was less than 3 µL/min/mg, the clearance [10] was 2.2 mL/min/kg and the IC50 [3] was 8 nM. For the same molecule, the “K(p,uu,brain)” value [11] was 0.77, the Occ [12] was 79.9% and the Ki (Orexin receptor type 2 [13]) was 12900 nM. It also gave a Tmax [14] of 1 h, a Ratio pKi [15] greater than 1000 and a bioavailability [16] of 18%. For the same molecule, the bioavailability [17] was 77% and the T1/2 [18] was 2.2 h.
Molecule `Cc1ccc(-n2nccn2)c(C(=O)N[C@H]2CCC[C@@H]2Nc2cnc3ccccc3n2)c1` has a microsomal CLint [5] of 442 µL/min/mg, an inhibition ([2]; filed as antagonist) of 60% and a microsomal CLint [6] of 335 µL/min/mg. The microsomal CLint [7] was 24 µL/min/mg and the IC50 [3] was 16 nM.
`Cc1ccc(-n2nccn2)c(C(=O)N2CCN(c3nc4cc(Cl)ccc4o3)CC[C@H]2C)c1` showed a T1/2 [18] of 1.25 h.
For `C[C@]1(Nc2cnc(C(F)(F)F)cn2)CCC[C@@H]1NC(=O)c1ncccc1-n1nccn1`, the Ki [1] was 18.2 nM, the pKi ([1]; cho) was 7.74 and the inhibition [2] was 21.1%. For the same molecule, the IC50 [3] was 16 nM.
Work on `CCc1nc(C(F)(F)F)cnc1N[C@@H]1CCC[C@H]1NC(=O)c1ncccc1-n1nccn1` yielded an inhibition ([2]; filed as antagonist) of 71.4% and an IC50 [3] of 1230 nM.
